Entries after “also recorded” stand apart in the source; their conditions may differ.
Experiments:
[1] = biological target: T1, BorH (uncultured bacterium, UniProt M9QSI0); assay: Quenching of BorH intrinsic Trp fluorescence upon FAD titration; set-up: species or system uncultured soil actinomycetes; conditions: 100 nM BorH; read-out: KD, FAD binding to BorH, BorH intrinsic Trp fluorescence
Protocol: Intrinsic tryptophan fluorescence spectroscopy was used to measure FAD binding to AbeH and BorH in 20 mM HEPES pH 7.7- and 50 mM sodium citrate. FAD was prepared in the same buffer and its concentration was determined spectrophotometrically as described earlier. Fluorescence experiments were performed as described earlier. FAD binding to apo-AbeH or apo-BorH was performed in duplicate with 100 nM fixed AbeH or BorH with variable FAD concentrations up to 30 and 70 μM, respectively. AbeH/FAD binding was monitored using excitation at 295 nm and emission at 328 nm. BorH/FAD binding was monitored using excitation at 290 nm and emission at 326 nm. Inner filter effect corrected fluorescence intensities were plotted against quenched intrinsic tryptophan fluorescence of AbeH and BorH. Data were fitted by nonlinear regression to eq 1 using GraphPad Prism 8.0.
Figure S9: FAD binding determined by quenching of BorH and AbeH intrinsic Trp fluorescence.
A. Variable concentrations of FAD (0-70 µM) were incubated with 100 nM BorH and Trp fluorescence was measured with excitation at 290 nm and emission at 326 nm. […]
B. Variable concentrations of FAD (0-30 µM) were incubated with 100 nM AbeH and Trp fluorescence was measured […] with excitation at 295 nm and emission at 328 nm. […]

[2] = system: BorH/FAD; assay: Isothermal titration calorimetry, Trp into BorH preincubated with FAD; format: binding, uncultured soil actinomycetes
Protocol: ITC experiments were performed using a VP-ITC isothermal titration calorimeter (MicroCal) in 20 mM HEPES pH 7.5, 350 mM NaCl, 1 mM ethylenediamine tetraacetic acid (EDTA) and 15% (v/v) glycerol. Solutions of AbeH, BorH, FAD (Chem-Implex), and Trp (Acros Organics) were prepared in the same buffer and degassed under vacuum at 30 °C for 20 min before loading in the syringe or cell. To analyze formation of binary complexes, AbeH or BorH was placed inside the cell, and ligand (FAD or Trp) was injected. For ternary complex titration, one ligand was preincubated with the macromolecule for 30 min at 30 °C to form binary complexes of AbeH/FAD, AbeH/Trp, BorH/FAD, and BorH/Trp before titrating with the second ligand. […] Formation of FADH2 by sodium dithionite was verified using absorbance and fluorescence spectrophotometry.
ITC experiments were performed with reference power set to 10 μcal/s and Milli-Q water in the reference cell. […] Heats of dilution for all titrants were measured by titrating ligand into buffer for binary complex titrations, and by titrating ligand into a solution containing the other ligand but no protein for ternary complex titration. […]
Titrations were analyzed by manually integrating each injection, subtracting the heat of dilution, and carrying out nonlinear least-squares fit of the calorimetric binding data to a one-site model using Origin 7.0 (Origin Lab). […]

[3] = biological target: T1, BorH; conditions: previously shown; cited from earlier work
[4] = biological target: AbeH (uncultured bacterium, UniProt F6LWA5); assay: Time-course of in vitro Trp chlorination and bromination by AbeH; format: biochemical, uncultured soil actinomycetes
Protocol: Time-course experiments were done using 1.7 μM AbeH, 3.3 μM holo-AbeF, 500 μM Trp, 2.5 mM NADH in 10 mM Na/KPO4 pH 8.2 with either 50 mM NaCl or 100 mM NaBr. Reactions were incubated for 5 min at 37 °C and NADH was added to start the reactions. Aliquots of 100 μL were quenched and analyzed by RP-HPLC at various time points. Unreacted substrate and product concentrations were calculated using peak areas and standard curves of Trp, 5-Cl-Trp, and 5-Br-Trp.
Figure S4: Time-course of in vitro Trp chlorination and bromination by AbeH.
Reaction conditions: 1.7 µM AbeH, 3.3 µM holo-AbeF, 0.5 mM Trp, 2.5 mM NADH, 10 mM Na/KPO4 pH 8.2, and either 50 mM NaCl (A) or 100 mM NaBr (B). Concentration of product formed was calculated from RP-HPLC chromatogram integrated A280 peak areas compared to standard curves of integrated peak areas of known concentrations of 5-Cl-Trp and 5-Br-Trp standards. Experiments were carried out in duplicate. (A) Time course of Trp chlorination by AbeH has chlorination specific activity of 87 µmol min-1 mg-1. (B) Time course of Trp bromination by AbeH has bromination specific activity of 34 µmol min-1 mg-1.
(1 picture or pasted object on this page, not shown here)

AbeH, sequence (F6LWA5 entry or part of it): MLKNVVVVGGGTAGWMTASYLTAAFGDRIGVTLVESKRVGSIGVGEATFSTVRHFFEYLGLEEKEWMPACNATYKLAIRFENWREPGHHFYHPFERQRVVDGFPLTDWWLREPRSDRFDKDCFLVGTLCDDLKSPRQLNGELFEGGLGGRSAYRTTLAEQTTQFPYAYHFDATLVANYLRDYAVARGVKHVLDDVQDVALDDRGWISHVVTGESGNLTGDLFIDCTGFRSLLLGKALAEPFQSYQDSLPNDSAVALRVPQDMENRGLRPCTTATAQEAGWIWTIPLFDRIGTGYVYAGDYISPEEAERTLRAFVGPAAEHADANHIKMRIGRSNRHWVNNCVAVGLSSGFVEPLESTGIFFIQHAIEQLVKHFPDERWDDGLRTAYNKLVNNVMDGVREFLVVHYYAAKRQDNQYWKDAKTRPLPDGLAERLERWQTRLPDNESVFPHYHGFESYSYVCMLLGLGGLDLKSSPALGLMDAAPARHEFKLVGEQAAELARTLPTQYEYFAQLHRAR
T1 sequence (M9QSI0 1-529): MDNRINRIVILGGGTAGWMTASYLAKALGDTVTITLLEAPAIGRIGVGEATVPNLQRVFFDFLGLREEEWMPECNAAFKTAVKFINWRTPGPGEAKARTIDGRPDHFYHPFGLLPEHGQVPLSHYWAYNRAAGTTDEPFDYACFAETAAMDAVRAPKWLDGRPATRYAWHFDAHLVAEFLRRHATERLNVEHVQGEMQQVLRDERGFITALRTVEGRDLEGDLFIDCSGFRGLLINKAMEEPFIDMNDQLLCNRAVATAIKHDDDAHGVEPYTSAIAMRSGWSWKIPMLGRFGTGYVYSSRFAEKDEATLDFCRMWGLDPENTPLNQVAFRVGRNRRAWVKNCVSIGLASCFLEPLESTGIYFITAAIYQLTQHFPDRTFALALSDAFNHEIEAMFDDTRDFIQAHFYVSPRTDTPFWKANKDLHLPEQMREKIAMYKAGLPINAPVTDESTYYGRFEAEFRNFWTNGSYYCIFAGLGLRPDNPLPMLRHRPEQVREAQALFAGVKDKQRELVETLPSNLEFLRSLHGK

SMILES	Kd [1] [µM]	Binding of Trp to preincubated BorH/FAD by ITC, in words ([2]; 21 mM Trp into 8 μM BorH preincubated with 5 mM FAD, listed as Trp)	KD, Trp binding to BorH/FAD, ITC ([2]; BorH preincubated with FAD)	Halogenation of the substrate by BorH, in words [3]	Specific activity of AbeH for Trp chlorination relative to Trp bromination [4]	Specific activity of AbeH for chlorination of Trp ([4]; 1.7 μM AbeH, 500 μM Trp, 50 mM NaCl, 37 °C) [μM min^–1 mg^–1]	Specific activity of AbeH for bromination of Trp ([4]; 1.7 μM AbeH, 500 μM Trp, 100 mM NaBr, 37 °C) [μM min^–1 mg^–1]	AbeH chlorination specific activity ([4]; Figure S4 A, 0.5 mM Trp, 50 mM NaCl) [µmol/min/mg]	AbeH bromination specific activity ([4]; Figure S4 B, 0.5 mM Trp, 100 mM NaBr) [µmol/min/mg]
Cc1cc2nc3c(=O)[nH]c(=O)nc-3n(C[C@H](O)[C@H](O)[C@H](O)COP(=O)(O)OP(=O)(O)OC[C@H]3O[C@@H](n4cnc5c(N)ncnc54)[C@H](O)[C@@H]3O)c2cc1C [FAD]	9.1 ± 2.4	–	–	–	–	–	–	–	–
N[C@@H](Cc1c[nH]c2ccccc12)C(=O)O [Tryptophan, L-tryptophan]	–	No binding was observed; also recorded: no evidence of Trp binding	no binding	brominate and chlorinate	approximately 2.5 ×	87	34	87	34

From paper PMC11840605, “Crystallographic and Thermodynamic Evidence of Negative Coupling in the Flavin-Dependent Tryptophan Halogenases AbeH and BorH” (ACS Omega, 2025)
